Laboratory results: US20100068743A1, “Method for predicting response of cancer patient to anticancer drug treatment” (John Wayne Cancer Institute and Sysmex Corporation, priority 2008, published 2010)

What was measured:
[1] = test system: tumor tissue of breast cancer patients; test: Reduction rate of tumor after chemotherapy (tumor size before and after) in breast cancer patients; format: in vivo, human; conditions: individual breast cancer patient, after receiving the chemotherapy prescribed in the regimen
Method: Next, CDK1 expression level, CDK1 active value, CDK2 expression level, CDK2 active value of malignant tumors collected by needle biopsy from breast cancer patients before receiving chemotherapy are measured, and CDK1 specific activity and CDK2 specific activity are obtained. Meanwhile, the reduction rate of tumor is obtained by measuring a size of tumor tissue of each patient before and after the chemotherapy. In Table 1, CDK1 SA denotes CDK1 specific activity, CDK2SA denotes CDK2 specific activity, […] denotes cell cycle profile score, and reduction rate of tumor denotes reduction rate of tumors after receiving the chemotherapy prescribed in the regimen. In the column of the regimen, “wT” means paclitaxel, “FEC” means fluorouracil, cyclophosphamide, epirubicin, “CE” means cyclophosphamide, epirubicin, “Doce” means docetaxel, “ZL” means zoladex, “TM” means tamoxifen, and “UFT” means uracil, tegafur.

[2] = test system: malignant tumors of breast cancer patients; test: Pathological complete response (pCR) attained by chemotherapy in breast cancer patients; format: in vivo, human; conditions: individual breast cancer patient, after chemotherapy regimen; 1 = pathological complete response
Method: For breast cancer patients listed in Table 3 shown below, CDK1 expression level, CDK1 active value, CDK2 expression level, CDK2 active value of malignant tumors collected by needle biopsy before receiving chemotherapy are measured, and CDK1 specific activity and CDK2 specific activity are obtained. Further for each of patients shown in Table 3, whether or not pathological complete response (pCR) has been attained by the chemotherapy is shown in Table 3. In the column “pCR” in Table 3, “1” denotes pathological complete response.

CC(=O)O[C@H]1C(=O)[C@@]2(C)[C@H]([C@H](OC(=O)c3ccccc3)[C@]3(O)C[C@H](OC(=O)[C@H](O)[C@@H](NC(=O)c4ccccc4)c4ccccc4)C(C)=C1C3(C)C)[C@]1(OC(C)=O)CO[C@@H]1C[C@@H]2O [wT, paclitaxel]
Reduction rate of tumor [1]: 70%
pCR [2]: 0
